According to patent US20130029928A1 (priority 2010, published 2013):
Several values for one entry are separate records, joined by “and”; a condition that tells them apart may be missing. Equal values may be shown once. Read-outs that look alike come from different tables or passages of the source.

Columns and labels:
OV-90 = test: ATP depletion cytotoxicity assay 48 hr; format: cell-based, human
Protocol: (§5) Assay replicates were independent in time and up to 4 replicates were performed per cell line.
(§6) Cells were plated at the optimal plating density for that cell line in 96-well plates and allowed to attach overnight. The next day, the medium was removed and replaced with fresh medium containing the dose ranges of test items. […] There were 3 replicates for each test item concentration.
(§7) Following exposure to Test Items, the CellTitre-Glo Luminescent Cell Viability Assay to measure ATP content was performed according to the manufacturer's detailed instructions (Promega Corporation, Technical Bulletin No. 288, and Cell notes, Issue 10, 2004).
(§8) Cells were plated at the optimal plating density for that cell line in 96-well plates and allowed to attach overnight. The next day, cells were pre-treated with the inhibitors UO126 or LY294002 (see Tables 18 & 20) for 2 hrs, the medium was removed and replaced with fresh medium containing the appropriate dose of the test item. […] Cells were exposed to these compounds in Roswell Park Memorial Institute (RPMI) medium containing 10% Foetal Calf Serum (FCS) and 2 mM Glutamine at 37° C. and 5% CO2 for 48 hours. There were 3 replicates for each test item concentration.
(§9) Following exposure to Test Items, the CellTitre-Glo Luminescent Cell Viability Assay to measure ATP content will be performed according to the manufacturer's detailed instructions (Promega Corporation, Technical Bulletin No. 288, and Cell notes, Issue 10, 2004).

SK-OV3 = test: ATP depletion cytotoxicity assay 48 hr; format: cell-based, human
Protocol: as §5, §6, §7, §8, §9

Hep3B = test: SRB cytotoxicity assay 48 hr; format: cell-based, human; conditions: read-out: IC50 Values After 48 Hrs Exposure
Protocol: (§10) The SRB assay was performed according to the method specified by the NIC/NIH. […] Assay replicates were independent in time and up to 4 replicates were performed per cell line.

MDA-MB-157 = test: SRB cytotoxicity assay 48 hr; format: cell-based, human; conditions: read-out: IC50 Values After 48 Hrs Exposure
Protocol: as §10

[1] = system: panel of tumour cell lines; test: ATP cytotoxicity assay on the panel of tumour cell lines (CXR1002 alone; test items alone vs combined with CXR1002); conditions: Homo sapiens, read-out: cytotoxicity IC50 to tumour cells (lowest of range)
Protocol: as §10
Cells were plated at the optimal plating density for that cell line in 96-well plates and allowed to attach overnight. The next day, the medium was removed and replaced with fresh medium containing the dose ranges of test items. The cells were exposed to 5-FU, cisplatin, docetaxel, doxorubicin, geldanamycin, gemcitabine, rapamycin or roscovitine in Roswell Park Memorial Institute (RPMI) medium containing 10% Foetal Calf Serum (FCS) and 2 mM Glutamine at 37° C. and 5% CO2 for 48 hours. […] There were 3 replicates for each test item concentration.
as §7

[2] = PANC-1 xenograft in female nude mice; format: in vivo, nude mouse; conditions: female, nude, mouse, plasma, 25 mg/kg; PANC-1 model; 24 hrs post last dose; Day 88
Protocol: (§1) A further xenograft model was performed using the human pancreatic cell line PANC-1. This tumour is slow growing in vivo. […] For various reasons, animals were lost during the study and the final group sizes were small. […] This experiment is currently being repeated to try to obtain larger group sizes at experimental completion.
(§2) In-life and terminal blood samples taken from the mice were analysed for CXR1002 levels using a validated analytical method. In-life samples averaged 146 μM and terminal blood samples (24 hours post final dose) averaged 474 μM (FIG. 7). Plasma values were higher than the whole blood values. This may be attributed to the duration of dosing. […] Furthermore, the erythrocyte/plasma partitioning coefficient (which measures the amount of drug bound to red cells compared to plasma binding) may contribute to the observed differences.

[3] = system: PANC-1 (pancreas) xenograft tumours; test: PANC-1 xenograft in female nude mice; format: in vivo, nude mouse
Protocol: as §1, §2

PANC-1 = test: ATP depletion cytotoxicity assay 48 hr; format: cell-based, human
Protocol: as §7
(§11) Cells were plated at the optimal plating density for that cell line in 96-well plates and allowed to attach overnight. […] Cells were exposed to these compounds in Roswell Park Memorial Institute (RPMI) medium containing 10% Foetal Calf Serum (FCS) and 2 mM Glutamine at 37° C. and 5% CO2 for 48 hours. There were 3 replicates for each test item concentration.
as §9

OUMS-27 = test: ATP depletion cytotoxicity assay 48 hr; format: cell-based, human
Protocol: as §7, §11, §9

HepG2 = test: ATP depletion cytotoxicity assay 48 hr; format: cell-based, human
Protocol: as §5, §6, §7, §8, §9

MCF-7 = test: SRB cytotoxicity assay 48 hr; format: cell-based, human; conditions: read-out: IC50 Values After 48 Hrs Exposure
Protocol: as §10

Canine Hepatocytes = test: ATP depletion cytotoxicity assay 48 hr; format: cell-based; conditions: Canis lupus familiaris, Hepatocyte, Study CXR0798, read-out: IC50 1
Protocol: as §10

MES-SA = test: ATP depletion cytotoxicity assay 48 hr; format: cell-based; conditions: Homo sapiens, Study CXR0798, read-out: IC50 1
Protocol: as §10

[4] = system: HepG2 (liver) xenograft tumours; test: HepG2 xenograft model of liver carcinoma; format: in vivo, nude mouse
Description: There was no obvious difference between the two different dosing regimens.

PANC-1 cells [5] = test: Transcription profiling of CXR1002-treated PANC-1 cells (ER stress genes, Ingenuity); format: cell-based, human; conditions: PANC-1, 24 hrs at IC15
Description: Representation analysis of the in vitro 4996 signature list identified a number of pathways that were over-represented.

OVCAR-3 = test: ATP depletion cytotoxicity assay 48 hr; format: cell-based; conditions: Homo sapiens
Protocol: as §5, §6, §7
Cells were plated at the optimal plating density for that cell line in 96-well plates and allowed to attach overnight. The next day, cells were pre-treated with the inhibitors UO126 or LY294002 (see Tables 18 & 20) for 2 hrs, the medium was removed and replaced with fresh medium containing the appropriate dose of the test item. […] Cells were exposed to these compounds in Roswell Park Memorial Institute (RPMI) medium containing 10% Foetal Calf Serum (FCS) and 2 mM Glutamine at 37° C. and 5% CO2 for 48 hours. There were 3 replicates for each test item concentration. […]

Stability / shelf life = format: physicochemical
Capan2 = test: ATP depletion cytotoxicity assay 48 hr; format: cell-based, human
Protocol: as §5, §6, §7, §8, §9

[6] = HT-29 xenograft in nude mice; format: in vivo, nude mouse; conditions: nude, mouse, plasma, intraperitoneal, 25 mg/kg; HT-29 model; 24 hrs post last dose; Day 29
Description: (§3) Animals were inoculated with a tumour cell suspension on each flank and the tumours were allowed to grow for 16 days.
(§4) These effects are consistent with a transient effect on the liver associated with mild toxicity and reversible liver enlargement. In rodents, this type of effect is usually due to hepatic PPARα activation associated with peroxisome proliferation.

[7] = system: HT-29 (colon adenocarcinoma) tumours; test: HT-29 xenograft in nude mice; format: in vivo, nude mouse
Description: as §3, §4

PANC-1 cells [8] = test: Western blot of PCNA and cleaved PARP in PANC-1 cells; format: cell-based, human; conditions: 450 μM, 24 hrs
Protocol: PCNA is a marker for cell proliferation and cleaved PARP is representative of caspase cleavage and apoptosis. […] Western blot analysis was performed with increasing amounts of protein, ranging between 2 and 20 μg (lanes 1-8). Positive control protein was derived from MCF7 cells (PCNA blot, lane 9) or from HeLa cells treated with staurosporine for 3 hours (Cleaved PARP blot, lanes 9, 10). Levels of total β-Actin are shown as a control for protein loading.
Cells respond to the accumulation of unfolded proteins in the ER by a rescue process called the unfolded protein response (UPR). However, if the unfolded protein accumulation is persistent and the stress cannot be relieved, UPR signalling switches from prosurvival to proapoptotic (Kim (2006)), (Szegezdi (2006)), usually involving processing of caspases (Chang (2006)). Consistent with this hypothesis, CXR1002-treated PANC-1 cells show reduced proliferation and cleavage of the caspase substrate poly-ADP ribose polymerase (PARP) (FIG. 2) in PANC-1 cells.

[9] = ATP depletion, 48 hrs, read-out: IC50 1-4 (independent replicates)
[10] = read-out: IC50 1-4 (independent replicates)

Work on `O=C(O)C(F)(F)C(F)(F)C(F)(F)C(F)(F)C(F)(F)C(F)(F)C(F)(F)F` [CXR1002] yielded an IC50 (OV-90; [9]) of 670 µM, an IC50 (OV-90; Homo sapiens, OV-90, 48 h, ATP depletion, 48 hrs, read-out: IC50 1-4 (independent replicates)) of 650 µM and an IC50 (OV-90; Homo sapiens, OV-90, 48 h, ATP depletion, 48 hrs, read-out: IC50 Mean) of 657 µM. For the same molecule, the IC50 (OV-90; Homo sapiens, OV-90, 48 h, Example 7, 48 hour, CXR1002 0-1 mM, U0126 fixed 10 μM where combined, read-out: IC50) was 714 µM, the IC50 (SK-OV3; Homo sapiens, SK-OV-3, 48 h, read-out: IC50 1-4 (independent replicates)) was 550 µM and the IC50 (SK-OV3; Homo sapiens, SK-OV-3, 48 h, read-out: IC50 Mean) was 535 µM. For the same molecule, the IC50 (SK-OV3; [10]) was 520 µM, the IC50 (Hep3B) was 215 ± 28.3 µM and the IC50 (MDA-MB-157) was 463 ± 168 µM. For the same molecule, the IC50 [1] was no less than 273 µM, the concentration at 24 h [2] was 474 µM and the tumour growth ([3]; 25 mg/kg, 3 times per week) was “substantially delayed tumour growth”. The “Absolute Tumour Volume as a Percentage of Saline Control” value (shortened to “Absolute Tumour Volume as a Percentage”) ([3]; PANC-1, 25 mg/kg 3 times per week, Day 82) was 50.13%, the “Terminal CXR1002 plasma levels” value ([3]; PANC-1 model, 24 hrs post last dose, Day 88) was 474 ± 153 µM and the “In-life blood CXR1002 level (average)” value ([3]; PANC-1 model, in-life samples) was 146 µM. The IC50 (PANC-1; [9]) was > 1 mM (2×) and 880 µM, the IC50 (PANC-1; Homo sapiens, PANC-1, 48 h, ATP depletion, 48 hrs, read-out: IC50 1-4 (independent replicates)) was greater than 1 mM and the IC50 (PANC-1; Homo sapiens, PANC-1, 48 h, ATP depletion, 48 hrs, read-out: IC50 Mean) was greater than 1 mM. It also gave an IC50 (PANC-1; Homo sapiens, PANC-1, 48 h, Example 7, 48 hour, CXR1002 0-1 mM, U0126 fixed 10 μM where combined, read-out: IC50) greater than 1 mM, an IC50 (OUMS-27; [9]) of 800 µM and an IC50 (OUMS-27; Homo sapiens, 48 h, ATP depletion, 48 hrs, read-out: IC50 1-4 (independent replicates)) of 1000 µM. The IC50 (OUMS-27; Homo sapiens, 48 h, ATP depletion, 48 hrs, read-out: IC50 Mean) was 900 µM, the IC50 (OUMS-27; Homo sapiens, 48 h, Example 7, 48 hour, CXR1002 0-1 mM, U0126 fixed 10 μM where combined, read-out: IC50) was 821 µM and the IC50 (HepG2; Homo sapiens, HepG2, 48 h, read-out: IC50 1-4 (independent replicates)) was 240 µM. For the same molecule, the IC50 (HepG2; Homo sapiens, HepG2, 48 h, read-out: IC50 Mean) was 273 µM, the IC50 (HepG2; [10]) was 230 µM and 350 µM and the IC50 (MCF-7) was 276 ± 33.2 µM. The IC50 (Canine Hepatocytes) was 240 µM, the IC50 (MES-SA) was greater than 1 mM and the growth inhibition response ([4]; 25 mg/kg 2× or 3× per week) was “modest response”. The “Absolute Tumour Volume as a Percentage” value ([4]; HepG2, 25 mg/kg, combined regimens, Day 53) was 77.05%, the “Terminal CXR1002 plasma levels” value ([4]; HepG2 model, ×3 weekly regimen, Days 60-64) was 520 µM and 520 ± 46 µM and the ATF3 induction (PANC-1 cells [5]) was 3 fold. For the same molecule, the IC50 (OVCAR-3; [10]) was 650 µM, the IC50 (OVCAR-3; read-out: IC50 Mean) was 650 µM and the stability (Stability / shelf life) was “extremely stable”. It also gave an IC50 (Capan2; Homo sapiens, Capan-2, 48 h, read-out: IC50 1-4 (independent replicates), ATP depletion, 48 hrs, Capan2) of 850 µM, an IC50 (Capan2; Homo sapiens, Capan-2, 48 h, read-out: IC50 Mean, ATP depletion, 48 hrs, Capan2) of 817 µM and an IC50 (Capan2; read-out: IC50 1-4 (independent replicates), ATP depletion, 48 hrs, Capan2) of 750 µM. For the same molecule, the concentration at 24 h [6] was 277 µM, the “effect on tumour volumes” value ([7]; 25 mg/kg i.p. three times per week for 28 days) was “anti-tumour effect” and the “Absolute Tumour Volume as a Percentage” value ([7]; HT-29, 25 mg/kg i.p. three times per week, Day 29) was 49.22%. For the same molecule, the “effect on body weight” value ([7]; HT-29 model) was “No significant compound-dependent effects”, the “increase in liver weight” value ([7]; HT-29 model) was “up to 2.5 fold” and the “Terminal / maximum CXR1002 plasma level” value ([7]; HT-29 model, 24 hrs post last dose, Day 29) was 277 µM. For the same molecule, the “increase in plasma AST” value ([7]; mice bearing HT-29 xenografts) was “up to 3.5 fold”, the “plasma ALT levels” value ([7]; mice bearing HT-29 xenografts) was “decreased” and the “plasma glucose and triglyceride levels” value ([7]; tumour-bearing nude mice, HT-29) was “slight reductions”. For the same molecule, the “PCNA protein level (cell proliferation marker)” value (PANC-1 cells [8]) was “reduced PCNA levels” and the “cleaved PARP protein level (apoptosis marker)” value (PANC-1 cells [8]) was “increased cleaved PARP”.
